Holding throughout (experiment): Competitive isoTOP-ABPP, cell lysates
Type in all cases: binding

In one experiment the target is RRAGC C358 (Q9HB90) (Homo sapiens, UniProt Q9HB90).
The next experiment deals with T1, USP48 C39 (Q86UV5) (Homo sapiens, UniProt Q86UV5).
T1 sequence (Q86UV5 1-1035): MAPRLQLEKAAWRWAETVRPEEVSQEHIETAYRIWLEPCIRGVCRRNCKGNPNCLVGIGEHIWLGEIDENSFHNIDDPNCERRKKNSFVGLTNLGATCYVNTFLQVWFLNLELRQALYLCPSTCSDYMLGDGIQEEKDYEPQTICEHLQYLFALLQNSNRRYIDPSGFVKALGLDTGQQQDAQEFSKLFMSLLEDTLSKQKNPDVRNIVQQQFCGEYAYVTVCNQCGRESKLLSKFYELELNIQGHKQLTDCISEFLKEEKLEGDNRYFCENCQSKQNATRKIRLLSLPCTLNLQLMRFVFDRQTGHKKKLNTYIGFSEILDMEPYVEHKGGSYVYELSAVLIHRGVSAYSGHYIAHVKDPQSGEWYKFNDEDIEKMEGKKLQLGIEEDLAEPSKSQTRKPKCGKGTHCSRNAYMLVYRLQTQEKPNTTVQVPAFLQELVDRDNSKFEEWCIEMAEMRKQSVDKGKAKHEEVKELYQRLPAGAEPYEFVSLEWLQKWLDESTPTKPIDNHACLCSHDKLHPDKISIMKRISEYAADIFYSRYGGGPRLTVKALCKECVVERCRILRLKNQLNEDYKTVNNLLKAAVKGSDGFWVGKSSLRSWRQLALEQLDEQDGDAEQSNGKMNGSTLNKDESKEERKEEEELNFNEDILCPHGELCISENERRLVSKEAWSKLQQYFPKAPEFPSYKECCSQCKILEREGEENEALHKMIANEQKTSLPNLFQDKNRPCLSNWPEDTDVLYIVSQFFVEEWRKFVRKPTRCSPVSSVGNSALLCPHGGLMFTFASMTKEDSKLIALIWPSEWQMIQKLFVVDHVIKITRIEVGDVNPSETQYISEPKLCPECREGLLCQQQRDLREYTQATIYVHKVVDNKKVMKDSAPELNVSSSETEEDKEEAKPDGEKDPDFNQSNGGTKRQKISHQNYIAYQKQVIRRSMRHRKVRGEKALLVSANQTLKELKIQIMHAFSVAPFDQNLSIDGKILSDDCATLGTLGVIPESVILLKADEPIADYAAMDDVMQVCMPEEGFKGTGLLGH
The settings on record: for R value (DMSO/fragment): 250 μM, in vitro.

For a further experiment, the target named is RRAGC C377 (Q9HB90) (Homo sapiens, UniProt Q9HB90). The settings on record: for isoTOP-ABPP reactivity profile ratio, Q9HB90_C377: 500 μm, in-vitro_ramos_231.
RRAGC C377 (Q9HB90), sequence (Q9HB90 2-399 limits assumed): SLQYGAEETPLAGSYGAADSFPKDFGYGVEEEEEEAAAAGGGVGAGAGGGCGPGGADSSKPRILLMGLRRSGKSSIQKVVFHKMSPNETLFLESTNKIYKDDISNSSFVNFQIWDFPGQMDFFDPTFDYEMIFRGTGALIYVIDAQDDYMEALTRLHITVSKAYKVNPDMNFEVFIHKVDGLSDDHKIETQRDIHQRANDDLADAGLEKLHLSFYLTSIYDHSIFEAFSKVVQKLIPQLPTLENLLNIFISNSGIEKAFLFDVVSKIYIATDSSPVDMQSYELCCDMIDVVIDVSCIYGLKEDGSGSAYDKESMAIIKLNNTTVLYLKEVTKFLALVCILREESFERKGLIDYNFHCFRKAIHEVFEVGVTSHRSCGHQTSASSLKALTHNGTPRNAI
RRAGC C377 (Q9HB90), sequence (Q7L523 whole entry partner): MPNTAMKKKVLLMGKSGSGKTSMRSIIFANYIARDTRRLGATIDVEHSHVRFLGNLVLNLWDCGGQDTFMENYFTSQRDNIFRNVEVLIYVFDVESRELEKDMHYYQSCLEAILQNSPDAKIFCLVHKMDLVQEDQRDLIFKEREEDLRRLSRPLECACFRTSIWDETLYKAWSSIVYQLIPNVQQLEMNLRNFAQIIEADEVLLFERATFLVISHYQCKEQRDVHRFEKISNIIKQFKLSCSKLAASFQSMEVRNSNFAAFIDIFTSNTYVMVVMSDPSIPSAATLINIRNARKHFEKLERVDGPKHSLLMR
A further experiment has as its target T2, MGMT C145 (P16455) (Homo sapiens, UniProt P16455).
T2 sequence (P16455 1-207): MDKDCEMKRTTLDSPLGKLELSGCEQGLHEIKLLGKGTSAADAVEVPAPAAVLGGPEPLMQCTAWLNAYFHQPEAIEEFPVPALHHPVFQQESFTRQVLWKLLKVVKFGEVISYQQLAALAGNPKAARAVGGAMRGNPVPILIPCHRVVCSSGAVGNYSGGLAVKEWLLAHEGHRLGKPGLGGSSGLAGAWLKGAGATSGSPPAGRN
The settings on record: for isoTOP-ABPP ratio (reactivity profile), P16455_C145: 500 μm in-vitro ramos.

SMILES strings stand for the structures.

RRAGC C358 (Q9HB90), sequence (Q9HB90 2-399 limits assumed): as the sequence (Q9HB90 2-399 limits assumed) above
RRAGC C358 (Q9HB90), sequence (Q7L523 whole entry partner): as the sequence (Q7L523 whole entry partner) above

Turning to `COc1ccc(C2CC(c3cccs3)=NN2C(=O)CCl)cc1` (centres unmarked) [compound 4], the “R value (DMSO/fragment)” value at RRAGC C358 (Q9HB90) (250 μM, in vitro, MDA-MB-231) turned out to be 1.5; at USP48 C39 (Q86UV5) (MDA-MB-231), 1.4; at USP48 C39 (Q86UV5) (Ramos), 1.4; on RRAGC C377 (Q9HB90) (250 μM, in vitro, MDA-MB-231), 3.5; at MGMT C145 (P16455) (250 μM, in vitro, Ramos) it was 20.0.

As for `O=C(CCl)Nc1cccc2ncccc12` [compound 51], the “isoTOP-ABPP reactivity profile ratio, Q86UV5_C39” value at USP48 C39 (Q86UV5) (500 μm, in-vitro_ramos) was determined as 1.8. In addition, the “isoTOP-ABPP reactivity profile ratio, Q9HB90_C377” value on RRAGC C377 (Q9HB90) was 0.6. Further, at MGMT C145 (P16455) (500 μm, in-vitro_ramos), the “isoTOP-ABPP reactivity profile ratio, P16455_C145” value came out at 20.0.

Regarding `O=C(CCl)NC1C(O)OC(CO)C(O)C1O` (mixture of isomers) [compound 44], the “isoTOP-ABPP reactivity profile ratio, Q9HB90_C377” value at RRAGC C377 (Q9HB90) is listed as 0.7.

As to `O=C(CCl)Nc1ccccc1C1CCCCCC1` [compound 35], the “isoTOP-ABPP reactivity ratio, Q86UV5_C39” value on USP48 C39 (Q86UV5) (500 μm, in-vitro_ramos) came to 1.0.

Turning to `O=C(CCl)N1CCN(S(=O)(=O)c2ccccc2F)CC1` [compound 10], the “isoTOP-ABPP ratio, Q86UV5_C39” value on USP48 C39 (Q86UV5) (500 μM, invitro, 231) is 2.5.

`O=C(CCl)N1CCN(CC(=O)N2CCOCC2)CC1` [compound 29]: the “isoTOP-ABPP ratio (reactivity profile), Q86UV5_C39” value on USP48 C39 (Q86UV5) (500 μm in-vitro ramos_231) is 1.2. In addition, on RRAGC C377 (Q9HB90) (500 μm in-vitro ramos_231), the “isoTOP-ABPP ratio (reactivity profile), Q9HB90_C377” value (“isoTOP-ABPP ratio … Q9HB90_C377” below) was found to be 1.3. Moreover, at MGMT C145 (P16455), the “isoTOP-ABPP ratio (reactivity profile), P16455_C145” value (“isoTOP-ABPP ratio … P16455_C145” below) was found to be 20.0.

Turning to `O=C(CCl)N1CCOCC1` [compound 22], the “isoTOP-ABPP ratio (reactivity profile), Q9HB90_C358” value on RRAGC C358 (Q9HB90) (500 μm in-vitro ramos_231) was determined as 1.7. The figures for the “isoTOP-ABPP ratio … Q9HB90_C377” value at RRAGC C377 (Q9HB90) (500 μm in-vitro ramos) and at RRAGC C377 (Q9HB90) (500 μm in-vitro ramos_231) were 0.9 and 1.7, respectively.

For the molecule `CC(C)CCOCCNC(=O)CCl` [compound 27], the “isoTOP-ABPP ratio (reactivity profile), Q9HB90_C358” value at RRAGC C358 (Q9HB90) (500 μm in-vitro ramos_231) is 0.3. The “isoTOP-ABPP ratio (reactivity profile), Q86UV5_C39” value on USP48 C39 (Q86UV5) (500 μm in-vitro ramos_231) is recorded as 0.8. For the same molecule, the “isoTOP-ABPP ratio … Q9HB90_C377” value on RRAGC C377 (Q9HB90) (500 μm in-vitro ramos_231) is 1.0. Also, the “isoTOP-ABPP ratio … P16455_C145” value at MGMT C145 (P16455) is listed as 20.0.

On to `O=C(CCl)N1CCC(C(O)(c2ccccc2)c2ccccc2)CC1` [compound 20], for which the “isoTOP-ABPP ratio (reactivity profile), Q86UV5_C39” value stood at 1.8 at USP48 C39 (Q86UV5) (500 μm in-vitro ramos) and 1.1 at USP48 C39 (Q86UV5) (500 μm in-vitro ramos_231). Further, on MGMT C145 (P16455), the “isoTOP-ABPP ratio … P16455_C145” value turned out to be 20.0.

Regarding `CCN(CC)c1ccc(S(N)(=O)=O)cc1NC(=O)CCl` [compound 30], the “isoTOP-ABPP ratio (reactivity profile), Q9HB90_C358” value at RRAGC C358 (Q9HB90) (500 μm in-vitro ramos) is 1.0. In addition, the “isoTOP-ABPP ratio … Q9HB90_C377” value on RRAGC C377 (Q9HB90) (500 μm in-vitro ramos) was 1.4.

Turning to `N#CC(=Cc1ccc(-c2ccccc2Cl)o1)C(N)=O` [compound 42], on MGMT C145 (P16455) (500 μm, in-vitro_ramos), the “isoTOP-ABPP reactivity profile ratio, P16455_C145” value came to 0.9.

For the molecule `C=CC(=O)N1CCC(c2noc3ccc(F)cc23)CC1` [compound 37], the “isoTOP-ABPP reactivity ratio, Q86UV5_C39” value on USP48 C39 (Q86UV5) (500 μm, in-vitro_ramos) was 0.7.

Turning to `N#C/C(=C\c1cc(C(F)(F)F)cc(C(F)(F)F)c1)C(N)=O` [compound 23], at USP48 C39 (Q86UV5) (500 μm in-vitro ramos), the “isoTOP-ABPP ratio (reactivity profile), Q86UV5_C39” value is listed as 1.3. Moreover, the “isoTOP-ABPP ratio … Q9HB90_C377” value on RRAGC C377 (Q9HB90) (500 μm in-vitro ramos_231) came out at 1.5. Besides, the “isoTOP-ABPP ratio … P16455_C145” value at MGMT C145 (P16455) amounted to 1.0.

On to `C=CC(=O)Nc1cc(C)c(Br)cc1C` [compound 40], for which the “isoTOP-ABPP reactivity ratio, Q86UV5_C39” value at USP48 C39 (Q86UV5) (500 μm, in-vitro_ramos) was determined as 1.6. Moreover, the “isoTOP-ABPP reactivity ratio, P16455_C145” value at MGMT C145 (P16455) (500 μm, in-vitro_ramos) is recorded as 1.0.

Consider `O=C(CCl)NC12CC3CC(CC(C3)C1)C2` [compound 21], for which the “isoTOP-ABPP ratio (reactivity profile), Q9HB90_C358” value at RRAGC C358 (Q9HB90) (500 μm in-vitro ramos_231) was found to be 1.2. Besides, the “isoTOP-ABPP ratio (reactivity profile), Q86UV5_C39” value is 1.2 at USP48 C39 (Q86UV5) (500 μm in-vitro ramos) and 20.0 on USP48 C39 (Q86UV5) (500 μm in-vitro ramos_231). The “isoTOP-ABPP ratio … Q9HB90_C377” value on RRAGC C377 (Q9HB90) (500 μm in-vitro ramos_231) came to 1.4.

As to `CNS(=O)(=O)C=Cc1ccc2c(ccn2Cc2ccccc2)c1` [compound 6], on RRAGC C358 (Q9HB90) (500 μM, invitro, 231), the “isoTOP-ABPP ratio, Q9HB90_C358” value is 1.2.
